Source: ChEMBL document CHEMBL1909294, “Translating clinical findings into knowledge in drug safety evaluation--drug induced liver injury prediction system (DILIps)” (PLoS Comput Biol, 2011)

Columns and labels:
Hepatotoxicity [1] = tested on: Hepatotoxicity;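 for HepSE bilirubinemia: bilirubinemia hepatic side effect score drawn from the DILIps training data, a prediction system for drug-induced liver injury; call rule not given here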;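 for HepSE cholecystitis: Cholecystitis-related hepatic side effect score drawn from the DILIps (drug-induced liver injury prediction) training data set; call rule not given here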;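 for HepSE cholelithiasis: hepatic side effect score for cholelithiasis, drawn from the DILIps training data for predicting drug-induced liver injury; call rule not given here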;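 for HepSE cirrhosis: cirrhosis hepatic side effect score taken from the DILIps (drug-induced liver injury prediction) training set; call rule not given here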;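 for HepSE elevated liver function tests: hepatic side effect score for raised liver function tests, as recorded in the DILIps training set used for predicting drug-induced liver injury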; for HepSE hepatic failure: call rule not given here;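 for HepSE hepatomegaly: hepatic side effect score for hepatomegaly, taken from the training set of the DILIps drug-induced liver injury prediction system; call rule not given here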
Hepatotoxicity [2] = tested on: Hepatotoxicity; remark: listed apart in the source;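 for HepSE bilirubinemia: bilirubinemia hepatic side effect score drawn from the DILIps training data, a prediction system for drug-induced liver injury; call rule not given here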;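 for HepSE cholecystitis: Cholecystitis-related hepatic side effect score drawn from the DILIps (drug-induced liver injury prediction) training data set; call rule not given here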;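 for HepSE cholelithiasis: hepatic side effect score for cholelithiasis, drawn from the DILIps training data for predicting drug-induced liver injury; call rule not given here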;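 for HepSE cirrhosis: cirrhosis hepatic side effect score taken from the DILIps (drug-induced liver injury prediction) training set; call rule not given here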;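 for HepSE elevated liver function tests: hepatic side effect score for raised liver function tests, as recorded in the DILIps training set used for predicting drug-induced liver injury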; for HepSE hepatic failure: call rule not given here
Hepatotoxicity [3] = tested on: Hepatotoxicity; remark: listed apart in the source;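 for HepSE bilirubinemia: bilirubinemia hepatic side effect score drawn from the DILIps training data, a prediction system for drug-induced liver injury; call rule not given here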;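 for HepSE cholecystitis: Cholecystitis-related hepatic side effect score drawn from the DILIps (drug-induced liver injury prediction) training data set; call rule not given here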;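 for HepSE cholelithiasis: hepatic side effect score for cholelithiasis, drawn from the DILIps training data for predicting drug-induced liver injury; call rule not given here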;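 for HepSE cirrhosis: cirrhosis hepatic side effect score taken from the DILIps (drug-induced liver injury prediction) training set; call rule not given here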;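 for HepSE elevated liver function tests: hepatic side effect score for raised liver function tests, as recorded in the DILIps training set used for predicting drug-induced liver injury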; for HepSE hepatic failure: call rule not given here
Hepatotoxicity [4] = tested on: Hepatotoxicity; remark: listed apart in the source;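 for HepSE bilirubinemia: bilirubinemia hepatic side effect score drawn from the DILIps training data, a prediction system for drug-induced liver injury; call rule not given here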;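 for HepSE cholecystitis: Cholecystitis-related hepatic side effect score drawn from the DILIps (drug-induced liver injury prediction) training data set; call rule not given here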;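 for HepSE cholelithiasis: hepatic side effect score for cholelithiasis, drawn from the DILIps training data for predicting drug-induced liver injury; call rule not given here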;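 for HepSE cirrhosis: cirrhosis hepatic side effect score taken from the DILIps (drug-induced liver injury prediction) training set; call rule not given here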;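 for HepSE elevated liver function tests: hepatic side effect score for raised liver function tests, as recorded in the DILIps training set used for predicting drug-induced liver injury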; for HepSE hepatic failure: call rule not given here
Hepatotoxicity [5] = tested on: Hepatotoxicity; remark: listed apart in the source; for HepSE hepatic failure: call rule not given here
Hepatotoxicity [6] = tested on: Hepatotoxicity; remark: listed apart in the source; for HepSE hepatic failure: call rule not given here
Hepatotoxicity [7] = tested on: Hepatotoxicity; remark: listed apart in the source
Hepatotoxicity [8] = tested on: Hepatotoxicity; remark: listed apart in the source
Hepatotoxicity [9] = tested on: Hepatotoxicity; remark: listed apart in the source
Hepatotoxicity [10] = tested on: Hepatotoxicity; remark: listed apart in the source
Hepatotoxicity [11] = tested on: Hepatotoxicity; remark: listed apart in the source
Hepatotoxicity [12] = tested on: Hepatotoxicity; remark: listed apart in the source
Hepatotoxicity [13] = tested on: Hepatotoxicity; remark: listed apart in the source
Hepatotoxicity [14] = tested on: Hepatotoxicity; remark: listed apart in the source

## C[N+]1(C)CCCC(OC(=O)C(O)(c2ccccc2)c2ccccc2)C1.[Br-] (stereo not drawn) [MEPENZOLATE BROMIDE]
Hepatotoxicity [1]
  HepSE_bilirubinemia: 0
Hepatotoxicity [2]
  HepSE_cholecystitis: 0
Hepatotoxicity [3]
  HepSE_cholelithiasis: 0
Hepatotoxicity [4]
  HepSE_cirrhosis: 0
Hepatotoxicity [5]
  HepSE_elevated liver function tests: 0
Hepatotoxicity [6]
  HepSE_hepatic failure: 0
Hepatotoxicity [7]
  HepSE_hepatic necrosis: 0
Hepatotoxicity [8]
  HepSE_hepatitis: 0
Hepatotoxicity [9]
  HepSE_hepatomegaly: 0
Hepatotoxicity [10]
  HepSE_jaundice: 0
Hepatotoxicity [11]
  HepSE_liver disease: 0
Hepatotoxicity [12]
  HepSE_liver fatty: 0
Hepatotoxicity [13]
  HepSE_liver function tests abnormal: 0
Hepatotoxicity [14]
  HepSE_Combined Scores: 0

## CCOC(=O)C1(c2ccccc2)CCN(C)CC1 [MEPERIDINE]
Hepatotoxicity [1]
  HepSE_bilirubinemia: 0
Hepatotoxicity [2]
  HepSE_cholecystitis: 0
Hepatotoxicity [3]
  HepSE_cholelithiasis: 0
Hepatotoxicity [4]
  HepSE_cirrhosis: 0
Hepatotoxicity [5]
  HepSE_elevated liver function tests: 0
Hepatotoxicity [6]
  HepSE_hepatic failure: 0
Hepatotoxicity [7]
  HepSE_hepatic necrosis: 0
Hepatotoxicity [8]
  HepSE_hepatitis: 0
Hepatotoxicity [9]
  HepSE_hepatomegaly: 0
Hepatotoxicity [10]
  HepSE_jaundice: 0
Hepatotoxicity [11]
  HepSE_liver disease: 0
Hepatotoxicity [12]
  HepSE_liver fatty: 0
Hepatotoxicity [13]
  HepSE_liver function tests abnormal: 0
Hepatotoxicity [14]
  HepSE_Combined Scores: 0

## CCC1(c2ccccc2)NC(=O)N(C)C1=O (stereo not drawn) [MEPHENYTOIN]
Hepatotoxicity [1]
  HepSE_bilirubinemia: 0
Hepatotoxicity [2]
  HepSE_cholecystitis: 0
Hepatotoxicity [3]
  HepSE_cholelithiasis: 0
Hepatotoxicity [4]
  HepSE_cirrhosis: 0
Hepatotoxicity [5]
  HepSE_elevated liver function tests: 0
Hepatotoxicity [6]
  HepSE_hepatic failure: 0
Hepatotoxicity [7]
  HepSE_hepatic necrosis: 0
Hepatotoxicity [8]
  HepSE_hepatitis: 1
Hepatotoxicity [9]
  HepSE_hepatomegaly: 0
Hepatotoxicity [10]
  HepSE_jaundice: 1
Hepatotoxicity [11]
  HepSE_liver disease: 0
Hepatotoxicity [12]
  HepSE_liver fatty: 0
Hepatotoxicity [13]
  HepSE_liver function tests abnormal: 0
Hepatotoxicity [14]
  HepSE_Combined Scores: 2

## Cc1cccc(C)c1NC(=O)C1CCCCN1C (stereo not drawn) [MEPIVACAINE]
Hepatotoxicity [1]
  HepSE_bilirubinemia: 0
Hepatotoxicity [2]
  HepSE_cholecystitis: 0
Hepatotoxicity [3]
  HepSE_cholelithiasis: 0
Hepatotoxicity [4]
  HepSE_cirrhosis: 0
Hepatotoxicity [5]
  HepSE_elevated liver function tests: 0
Hepatotoxicity [6]
  HepSE_hepatic failure: 0
Hepatotoxicity [7]
  HepSE_hepatic necrosis: 0
Hepatotoxicity [8]
  HepSE_hepatitis: 0
Hepatotoxicity [9]
  HepSE_hepatomegaly: 0
Hepatotoxicity [10]
  HepSE_jaundice: 0
Hepatotoxicity [11]
  HepSE_liver disease: 0
Hepatotoxicity [12]
  HepSE_liver fatty: 0
Hepatotoxicity [13]
  HepSE_liver function tests abnormal: 0
Hepatotoxicity [14]
  HepSE_Combined Scores: 0

## CCCC(C)(COC(N)=O)COC(N)=O [MEPROBAMATE]
Hepatotoxicity [1]
  HepSE_bilirubinemia: 0
Hepatotoxicity [2]
  HepSE_cholecystitis: 0
Hepatotoxicity [3]
  HepSE_cholelithiasis: 0
Hepatotoxicity [4]
  HepSE_cirrhosis: 0
Hepatotoxicity [5]
  HepSE_elevated liver function tests: 0
Hepatotoxicity [6]
  HepSE_hepatic failure: 0
Hepatotoxicity [7]
  HepSE_hepatic necrosis: 0
Hepatotoxicity [8]
  HepSE_hepatitis: 0
Hepatotoxicity [9]
  HepSE_hepatomegaly: 0
Hepatotoxicity [10]
  HepSE_jaundice: 0
Hepatotoxicity [11]
  HepSE_liver disease: 0
Hepatotoxicity [12]
  HepSE_liver fatty: 0
Hepatotoxicity [13]
  HepSE_liver function tests abnormal: 0
Hepatotoxicity [14]
  HepSE_Combined Scores: 0

## Sc1ncnc2nc[nH]c12 [MERCAPTOPURINE ANHYDROUS]
Hepatotoxicity [1]; Liver
  HepSE_bilirubinemia: 0
Hepatotoxicity [2]; Liver
  HepSE_cholecystitis: 0
Hepatotoxicity [3]; Liver
  HepSE_cholelithiasis: 0
Hepatotoxicity [4]; Liver
  HepSE_cirrhosis: 0
Hepatotoxicity [5]; Liver
  HepSE_elevated liver function tests: 0
Hepatotoxicity [6]; Liver
  HepSE_hepatic failure: 0
Hepatotoxicity [7]; Liver
  HepSE_hepatic necrosis: 0
Hepatotoxicity [8]; Liver
  HepSE_hepatitis: 0
Hepatotoxicity [9]; Liver
  HepSE_hepatomegaly: 0
Hepatotoxicity [10]; Liver
  HepSE_jaundice: 0
Hepatotoxicity [11]; Liver
  HepSE_liver disease: 0
Hepatotoxicity [12]; Liver
  HepSE_liver fatty: 0
Hepatotoxicity [13]; Liver
  HepSE_liver function tests abnormal: 0
Hepatotoxicity [14]; Liver
  HepSE_Combined Scores: 0

## C[C@@H](O)[C@H]1C(=O)N2C(C(=O)O)=C(S[C@@H]3CN[C@H](C(=O)N(C)C)C3)[C@H](C)[C@H]12 [MEROPENEM]
Hepatotoxicity [1]
  HepSE_bilirubinemia: 0
Hepatotoxicity [2]
  HepSE_cholecystitis: 0
Hepatotoxicity [3]
  HepSE_cholelithiasis: 0
Hepatotoxicity [4]
  HepSE_cirrhosis: 0
Hepatotoxicity [5]
  HepSE_elevated liver function tests: 0
Hepatotoxicity [6]
  HepSE_hepatic failure: 1
Hepatotoxicity [7]
  HepSE_hepatic necrosis: 0
Hepatotoxicity [8]
  HepSE_hepatitis: 1
Hepatotoxicity [9]
  HepSE_hepatomegaly: 0
Hepatotoxicity [10]
  HepSE_jaundice: 1
Hepatotoxicity [11]
  HepSE_liver disease: 0
Hepatotoxicity [12]
  HepSE_liver fatty: 0
Hepatotoxicity [13]
  HepSE_liver function tests abnormal: 0
Hepatotoxicity [14]
  HepSE_Combined Scores: 3
